What was measured:
[1] = molecular target: CDK4/Cyclin D1 (Homo sapiens, UniProt P11802); experiment: CDK4/Cyclin D1 kinase inhibition TR-FRET assay; format: biochemical; settings: 1 mM ATP, 0.15 μM Rb (Ser780)-biotin substrate, read-out: CDK4D1 IC50
Method: (§1) Compounds disclosed herein were tested for inhibition of CDK4/Cyclin D1 or CDK6/Cyclin D3 kinase in an assay based on the time-resolved fluorescence-resonance energy transfer (TR-FRET) methodology. The assay was carried out in 384-well low volume black plates in a reaction mixture containing CDK4/Cyclin D1 or CDK6/Cyclin D3, 1 mM ATP, 0.15 μM Rb (Ser780)-biotin substrate and 0-10 μM compound in buffer containing 50 mM HEPES pH7.0, 0.02% NaN3, 0.01% BSA, 0.1 mM Orthovanadate, 50 mM MgCl2, 1 mM DTT and 0.005% Tween-20. The kinase was incubated with compound for 60 minutes at room temperature and the reaction was initiated by the addition of ATP and Rb (Ser780)-biotin substrate. After reaction at room temperature for 120 minutes, an equal volume of stop/detection solution was added according to the manufacture's instruction (Cisbio Bioassays). The stop/detection solution contained Streptavidin-XL665 and Anti-pRb (Ser780) mAb-Eu Cryptate in Detection buffer (Cisbio Bioassays). Plates were incubated at room temperature for 60 minutes, and the TR-FRET signals (ex337 nm, em665 nm/620 nm) were recorded on a PHERAstar FSX plate reader (BMG Labtech). The inhibition percentage of CDK4/Cyclin D1 or CDK6/Cyclin D3 kinase activity in presence of increasing concentrations of compounds was calculated based on the ratio of fluorescence at 665 nm to that at 620 nm. The IC50 for each compound was derived from fitting the data to the four-parameter logistic equation by Dotmatics.

[2] = molecular target: CDK6/Cyclin D3 (Homo sapiens, UniProt Q00534); experiment: CDK6/Cyclin D3 kinase inhibition TR-FRET assay; format: biochemical; settings: 1 mM ATP, 0.15 μM Rb (Ser780)-biotin substrate, read-out: CDK6D3 IC50
Method: as §1

Sequence of CDK4/Cyclin D1 (P11802 whole entry): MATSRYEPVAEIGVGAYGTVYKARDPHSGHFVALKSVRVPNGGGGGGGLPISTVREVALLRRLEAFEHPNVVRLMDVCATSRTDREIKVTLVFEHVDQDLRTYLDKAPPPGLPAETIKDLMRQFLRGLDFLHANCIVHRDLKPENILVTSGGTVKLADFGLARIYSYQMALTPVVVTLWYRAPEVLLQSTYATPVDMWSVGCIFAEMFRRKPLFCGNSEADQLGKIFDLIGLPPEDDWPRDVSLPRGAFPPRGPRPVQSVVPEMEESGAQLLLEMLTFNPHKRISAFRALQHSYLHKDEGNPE
Sequence of CDK4/Cyclin D1 (P24385 whole entry partner): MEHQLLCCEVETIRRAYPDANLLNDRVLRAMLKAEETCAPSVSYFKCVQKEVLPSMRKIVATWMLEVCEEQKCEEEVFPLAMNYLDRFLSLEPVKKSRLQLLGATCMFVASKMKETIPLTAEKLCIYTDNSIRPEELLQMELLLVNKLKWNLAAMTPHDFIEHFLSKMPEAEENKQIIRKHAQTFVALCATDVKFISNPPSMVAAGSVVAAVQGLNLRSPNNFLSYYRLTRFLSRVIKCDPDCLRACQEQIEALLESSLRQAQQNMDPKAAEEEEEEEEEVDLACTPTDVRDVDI
Sequence of CDK6/Cyclin D3 (Q00534 whole entry): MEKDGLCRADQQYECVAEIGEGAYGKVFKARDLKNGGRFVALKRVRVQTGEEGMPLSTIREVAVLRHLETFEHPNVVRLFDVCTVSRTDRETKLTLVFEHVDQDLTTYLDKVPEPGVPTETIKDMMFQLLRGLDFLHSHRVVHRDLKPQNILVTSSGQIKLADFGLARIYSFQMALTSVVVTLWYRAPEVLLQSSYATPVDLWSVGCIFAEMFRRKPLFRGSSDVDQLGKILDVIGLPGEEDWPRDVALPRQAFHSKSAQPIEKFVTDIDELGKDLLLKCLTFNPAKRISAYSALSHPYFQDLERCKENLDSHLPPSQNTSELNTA
Sequence of CDK6/Cyclin D3 (P30281 whole entry partner): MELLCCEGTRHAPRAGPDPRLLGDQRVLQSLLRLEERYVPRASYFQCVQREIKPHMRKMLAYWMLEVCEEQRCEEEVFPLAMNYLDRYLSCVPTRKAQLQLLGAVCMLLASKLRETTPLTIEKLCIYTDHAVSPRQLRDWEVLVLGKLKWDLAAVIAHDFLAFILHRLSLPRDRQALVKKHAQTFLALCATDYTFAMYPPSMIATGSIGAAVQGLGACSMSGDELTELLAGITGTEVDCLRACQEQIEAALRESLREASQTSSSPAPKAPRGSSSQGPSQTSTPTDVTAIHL

| Structure (SMILES) | IC50 [1] [nM] | IC50 [2] [nM] |
| --- | --- | --- |
| CC(C)c1c(CN2[C@H](C)COC[C@H]2C)cnc2ccc(-c3nc(N[C@@H]4CCOC[C@@H]4O)ncc3F)cc12 [Example 9, (3R,4R)-4-((4-(3-(((3R,5R)-3,5-dimethylmorpholino)methyl)-4-isopropylquinolin-6-yl)-5-fluoropyrimidin-2-yl)amino)tetrahydro-2H-pyran-3-ol] | 22 | 532 |
| CC(C)c1c(C2(O)CCCC2)cnc2ccc(-c3nc(N[C@@H]4CCOC[C@@H]4O)ncc3F)cc12 [Example 12, (3R,4R)-4-((5-fluoro-4-(3-(1-hydroxycyclopentyl)-4-isopropylquinolin-6-yl)pyrimidin-2-yl)amino)tetrahydro-2H-pyran-3-ol] | 5.5 | 300 |
| CC(C)c1c(CN2CC(O)C2)cnc2ccc(-c3nc(N[C@@H]4CCOC[C@@H]4O)ncc3F)cc12 [Example 5, 1-((6-(5-fluoro-2-(((3R,4R)-3-hydroxytetrahydro-2H-pyran-4-yl)amino)pyrimidin-4-yl)-4-isopropylquinolin-3-yl)methyl)azetidin-3-ol] | 26 | 1830 |
| CC(C)c1c(CN2[C@H](C)COC[C@@H]2C)cnc2c(F)cc(-c3nc(N[C@@H]4CCOC[C@@H]4O)ncc3Cl)cc12 [Example 21, (3R,4R)-4-((5-chloro-4-(3-(((3R,5S)-3,5-dimethylmorpholino)methyl)-8-fluoro-4-isopropylquinolin-6-yl)pyrimidin-2-yl)amino)tetrahydro-2H-pyran-3-ol] | 7.9 | 409 |
| CC(C)c1c(CN2[C@H](C)COC[C@@H]2C)cnc2ccc(-c3nc(N[C@@H]4CCOC[C@@H]4O)ncc3F)cc12 [Example 8, (3R,4R)-4-((4-(3-(((3R,5S)-3,5-dimethylmorpholino)methyl)-4-isopropylquinolin-6-yl)-5-fluoropyrimidin-2-yl)amino)tetrahydro-2H-pyran-3-ol] | 21 | 921 |
| CC(C)c1c(CNC2CC2)cnc2ccc(-c3nc(N[C@@H]4CCOC[C@@H]4O)ncc3F)cc12 [Example 10, (3R,4R)-4-((4-(3-((cyclopropylamino)methyl)-4-isopropylquinolin-6-yl)-5-fluoropyrimidin-2-yl)amino)tetrahydro-2H-pyran-3-ol] | 12 | 510 |
| CC(C)c1c(CN[C@@H]2CCCOC2)cnc2c(F)cc(-c3nc(N[C@@H]4CCOC[C@@H]4O)ncc3F)cc12 [Example 15, (3R,4R)-4-((5-fluoro-4-(8-fluoro-4-isopropyl-3-((((R)-tetrahydro-2H-pyran-3-yl)amino)methyl)quinolin-6-yl)pyrimidin-2-yl)amino)tetrahydro-2H-pyran-3-ol] | 21 | 702 |
| CC(C)c1c(CNC2CC(F)(F)C2)cnc2c(F)cc(-c3nc(N[C@@H]4CCOC[C@@H]4O)ncc3F)cc12 [Example 14, (3R,4R)-4-((4-(3-(((3,3-difluorocyclobutyl)amino)methyl)-8-fluoro-4-isopropylquinolin-6-yl)-5-fluoropyrimidin-2-yl)amino)tetrahydro-2H-pyran-3-ol] | 15 | 462 |
| CC(C)c1c(CN2[C@H](C)COC[C@@H]2C)cnc2c(F)cc(-c3nc(N[C@@H]4CCOC[C@@H]4O)ncc3F)cc12 [Example 13, (3R,4R)-4-((4-(3-(((3R,5S)-3,5-dimethylmorpholino)methyl)-8-fluoro-4-isopropylquinolin-6-yl)-5-fluoropyrimidin-2-yl)amino)tetrahydro-2H-pyran-3-ol] | 7.6 | 287 |
| CC(C)c1c(CN[C@@H]2CCCOC2)cnc2ccc(-c3nc(N[C@@H]4CCOC[C@@H]4O)ncc3F)cc12 [Example 3, (3R,4R)-4-((5-fluoro-4-(4-isopropyl-3-((((R)-tetrahydro-2H-pyran-3-yl)amino)methyl)quinolin-6-yl)pyrimidin-2-yl)amino)tetrahydro-2H-pyran-3-ol] | 16 | 1100 |
| CC(C)c1c(CN2CCC[C@H](C#N)C2)cnc2ccc(-c3nc(N[C@@H]4CCOC[C@@H]4O)ncc3F)cc12 [Example 6, (S)-1-((6-(5-fluoro-2-(((3R,4R)-3-hydroxytetrahydro-2H-pyran-4-yl)amino)pyrimidin-4-yl)-4-isopropylquinolin-3-yl)methyl)piperidine-3-carbonitrile] | 7 | 273 |
| CC(C)c1c(CN[C@H]2CCOC2)cnc2ccc(-c3nc(N[C@@H]4CCOC[C@@H]4O)ncc3F)cc12 [Example 11, (3R,4R)-4-((5-fluoro-4-(4-isopropyl-3-((((S)-tetrahydrofuran-3-yl)amino)methyl)quinolin-6-yl)pyrimidin-2-yl)amino)tetrahydro-2H-pyran-3-ol] | 16 | 1270 |
| CC(C)c1c(C2(O)CCOCC2)cnc2c(F)cc(-c3nc(N[C@@H]4CCOC[C@@H]4O)ncc3Cl)cc12 [Example 18, (3R,4R)-4-((5-chloro-4-(8-fluoro-3-(4-hydroxytetrahydro-2H-pyran-4-yl)-4-isopropylquinolin-6-yl)pyrimidin-2-yl)amino)tetrahydro-2H-pyran-3-ol] | 8.4 | 273 |
| CC(C)c1c(CO)cnc2ccc(-c3nc(N[C@@H]4CCOC[C@@H]4O)ncc3F)cc12 [Example 1, (3R,4R)-4-((5-fluoro-4-(3-(hydroxymethyl)-4-isopropylquinolin-6-yl)pyrimidin-2-yl)amino)tetrahydro-2H-pyran-3-ol] | 7.9 | 107 |
| CC(C)c1c(C2(O)CCCC2)cnc2c(F)cc(-c3nc(N[C@@H]4CCOC[C@@H]4O)ncc3F)cc12 [Example 16, (3R,4R)-4-((5-fluoro-4-(8-fluoro-3-(1-hydroxycyclopentyl)-4-isopropylquinolin-6-yl)pyrimidin-2-yl)amino)tetrahydro-2H-pyran-3-ol] | 4.4 | 93 |
| CC(C)c1c(CN2CCOCC2)cnc2ccc(-c3nc(N[C@@H]4CCOC[C@@H]4O)ncc3F)cc12 [Example 2, (3R,4R)-4-((5-fluoro-4-(4-isopropyl-3-(morpholinomethyl)quinolin-6-yl)pyrimidin-2-yl)amino)tetrahydro-2H-pyran-3-ol] | 21 | 456 |
| CC(C)c1c(C(C)(C)O)cnc2c(F)cc(-c3nc(N[C@@H]4CCOC[C@@H]4O)ncc3Cl)cc12 [Example 17, (3R,4R)-4-((5-chloro-4-(8-fluoro-3-(2-hydroxypropan-2-yl)-4-isopropylquinolin-6-yl)pyrimidin-2-yl)amino)tetrahydro-2H-pyran-3-ol] | 9 | 228 |
| CC(C)c1c(CN2CCC[C@@H](C#N)C2)cnc2ccc(-c3nc(N[C@@H]4CCOC[C@@H]4O)ncc3F)cc12 [Example 7, (R)-1-((6-(5-fluoro-2-(((3R,4R)-3-hydroxytetrahydro-2H-pyran-4-yl)amino)pyrimidin-4-yl)-4-isopropylquinolin-3-yl)methyl)piperidine-3-carbonitrile] | 24 | 544 |
| CC(C)c1c(CN)cnc2ccc(-c3nc(N[C@@H]4CCOC[C@@H]4O)ncc3F)cc12 [Example 4, (3R,4R)-4-((4-(3-(aminomethyl)-4-isopropylquinolin-6-yl)-5-fluoropyrimidin-2-yl)amino)tetrahydro-2H-pyran-3-ol] | 2.6 | 190 |

Reference: US20260242363A1, “SUBSTITUTED 6-(PYRIMIDIN-4-YL)QUINOLINE COMPOUNDS AS CYCLIN DEPENDENT KINASE INHIBITORS” (BeOne Medicines I GmbH, priority 2023, published 2026)
